In paper PMC4225846, “The Assessment of Cholinesterase from the Liver of Puntius Javanicus as Detection of Metal Ions” (The Scientific World Journal, 2014):
Where two headings read alike, the source gives them in different places.

Test system: T1, P. javanicus ChE (cholinesterase from the liver of Puntius javanicus)
T1 construct: gene BCHE
Experiment: Ellman assay (DTNB), […] nm, Michaelis-Menten fit
Type: biochemical, Barbonymus gonionotus
Settings: 0.1 M sodium phosphate pH 7.0, ambient temperature, 0.1-2.5 mM substrate, 95% confidence interval in brackets

In the case of `CCCC(=O)SCC[N+](C)(C)C` [BTC, S-Butyrylthiocholine iodide], the Km (read-out: BTC) is reported as 230 µM.

For `CCC(=O)SCC[N+](C)(C)C` [PTC, propionylthiocholine iodide], the Km (read-out: PTC) was 830 µM.

For `CC(=O)SCC[N+](C)(C)C` [ATC, acetylthiocholine iodide], the Km (read-out: ATC) was 410 µM.
